The record followed here is patent publication US6583147B1, “Pyrazolopyrimidinone derivatives for the treatment of impotence” (Dong A Pharm Co., Ltd., priority 1998, dated 2003).

The test system of one data set is rats. In words: Penile erection test using rats. It is filed as in vivo, rat. The following applies: oral single dose 10 mg/kg in 0.5% methyl cellulose, observed for 2 hours.
Data set [1] has as its target T1, Phosphodiesterase-5 enzyme (PDE 5) (Homo sapiens, UniProt O76074).
T1 construct: separated by HPLC (Mono Q anion exchange column) with concentration gradient of 0-500 mM NaCl to elute PDE isozymes; from tissue; host or cells: human corpus cavernosal tissue
In words: Test for phosphodiesterase-5 (PDE 5) activity. It is filed as biochemical. The following applies: PDE 5 fraction from human corpus cavernosal tissues.

A short description of data set [2]: Acute oral toxicity test in rats. The following applies: SD, rat, in vivo, 1 g/kg; rats, oral single dose; read-out: lethal dose (LD50) of oral administration.
Data set [3] concerns the target T2, Phosphodiesterase-3 enzyme (PDE 3) (Oryctolagus cuniculus, UniProt G1ST54).
T2 construct: The supernatant was separated by DEAE-cellulose column chromatography (Whatman DE52 bead); from tissue; host or cells: rabbit platelets
T2 sequence (G1ST54 1-1128): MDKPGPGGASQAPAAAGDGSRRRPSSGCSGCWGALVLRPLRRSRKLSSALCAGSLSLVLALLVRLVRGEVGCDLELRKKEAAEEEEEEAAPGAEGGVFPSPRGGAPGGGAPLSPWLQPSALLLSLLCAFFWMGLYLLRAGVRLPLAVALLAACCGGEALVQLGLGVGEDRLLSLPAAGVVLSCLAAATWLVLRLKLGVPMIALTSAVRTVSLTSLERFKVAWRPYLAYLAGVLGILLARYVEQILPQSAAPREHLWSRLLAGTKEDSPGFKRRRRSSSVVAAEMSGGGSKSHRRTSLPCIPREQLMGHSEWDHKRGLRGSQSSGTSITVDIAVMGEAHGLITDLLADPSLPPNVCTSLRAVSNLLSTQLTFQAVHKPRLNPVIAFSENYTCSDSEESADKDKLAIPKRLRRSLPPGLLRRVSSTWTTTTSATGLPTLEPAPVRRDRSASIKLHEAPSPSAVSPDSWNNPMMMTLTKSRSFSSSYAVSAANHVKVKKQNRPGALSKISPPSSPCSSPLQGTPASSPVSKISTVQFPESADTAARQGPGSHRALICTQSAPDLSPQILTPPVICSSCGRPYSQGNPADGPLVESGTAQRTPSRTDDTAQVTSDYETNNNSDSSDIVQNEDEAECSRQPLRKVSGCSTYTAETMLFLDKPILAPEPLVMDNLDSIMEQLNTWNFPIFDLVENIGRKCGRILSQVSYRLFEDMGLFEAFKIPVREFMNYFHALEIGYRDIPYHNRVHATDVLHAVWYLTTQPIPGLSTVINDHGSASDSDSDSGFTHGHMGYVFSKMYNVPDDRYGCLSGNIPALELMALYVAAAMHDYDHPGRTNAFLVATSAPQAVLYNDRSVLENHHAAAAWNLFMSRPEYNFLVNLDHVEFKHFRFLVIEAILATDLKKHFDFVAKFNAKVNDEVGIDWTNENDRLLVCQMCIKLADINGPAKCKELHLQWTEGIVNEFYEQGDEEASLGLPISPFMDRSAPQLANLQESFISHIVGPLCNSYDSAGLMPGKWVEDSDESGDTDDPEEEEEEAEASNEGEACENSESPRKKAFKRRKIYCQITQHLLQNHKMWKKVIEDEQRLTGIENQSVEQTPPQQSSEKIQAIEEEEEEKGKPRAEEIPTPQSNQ
In words: Test for phosphodiesterase-3 (PDE 3) activity. It is filed as biochemical. The following applies: PDE 3 fraction from platelets of a rabbit. The protocol:
Phosphodiesterase-3 enzyme (PDE 3) was separated from platelets of a rabbit. About 60 ml of blood was collected from a puncture of the abdominal artery of a rabbit in heparinized syringes. Platelet-rich plasma was harvested by centrifugation for 5 min at 450×g and further centrifuged for 15 min at 1,200×g to precipitate the platelets. The platelets were resuspended in homogenizing buffer (50 mM Tris-HCl, 1 mM MgCl2, pH 7.4), homogenized at 4° C. and ultrasonicated (30 sec/ml). The homogenized solution was centrifuged (105,000×g) for 1 hr at 4° C. to obtain the supernatant in which PDE was dissolved. The supernatant was separated by DEAE-cellulose column chromatography (Whatman DE52 bead) by using eluent (50 mM Tris-HCl, 3.75mM2-mercaptoethanol, pH 6.0) with concentration gradient of 0-1 M sodium acetate to elute PDE isozymes. The PDE activity was measured on the each column fraction by the following process to separate PDE 3 fraction and the inhibition for PDE 3 of the compounds of formula 1 was measured by using the fraction.
To 1.5 ml tube containing 100 ul of reaction mixture (15 mM Tris-HCl, 5 mM MgCl2, 0.5 mg/ml BSA, pH 7.4) were added appropriate amount of PDE 3 fraction and PDE inhibitor and the solution was mixed well. After [^3H]-cAMP or [^3H]-cGMP (500 nM, 2 uCi/ml) was added, the mixture was reacted in incubator of 30° C. for about 1 hour and the reaction was quenched by putting the tube into boiling water for about 45 seconds to 2 min. The tube was chilled in ice bath for about 5 min. To this tube was added snake venom (1 mg/ml, 100 ul) or 5′-nucleotidase (0.1 unit/tube) and the mixture was reacted in incubator of 37° C. for 10 min and chilled in ice bath. 3 times volume of methanol to the resin was added to the anion exchange resin (Bio-Rad resin, AG1-X2, 200-400 mesh) which had been already washed with 0.5 N HCl, H2O, 0.5 N NaOH, H2O, 0.5 N HCl and H2O in order and adjusted to pH 5. Then 1 ml of the pretreated resin was added to the each tube with vortexing. The mixture was left at 4° C. for 15 min with occasional vortexing and centrifuged (10,000 rpm) for about 5 min to sediment the resin. The supernatant (700 ul) was transferred to a liquid scintillation vial, and mixed with 10 ml of scintillation cocktail. After stabilizing the mixture by leaving it overnight, the radioactivity of the tube was measured by β-counter.

One may read the IC50 as the midpoint of a concentration-inhibition curve. For `CCCc1nn(C)c2c(=O)[nH]c(-c3cc(S(=O)(=O)NCc4cccnc4)ccc3OCC)nc12` [Example 47, 5-[2-ethoxy-5-(3-pyridylmethylamidosulfonyl)phenyl]-1-methyl-3-propyl-1,6-dihydro-7H-pyrazolo(4,3-d)pyrimidin-7-one], the “PEI (penile erection index)” value in the data set on rats is on record as 200.0 ± 100.0. The “genital grooming (number of genital groomings)” value (“genital grooming” for short) with rats is 3.0 ± 1.0. The IC50 in data set [1] is 2.78 nM; in data set [3], 20900 nM. The LD50 in data set [2] is greater than 1000 mg/kg.
On to `CCOc1ccc(S(=O)(=O)NCC2CCN(CC)C2)cc1-c1nc2c(CC(C)C)nn(C)c2c(=O)[nH]1` (centres unmarked) [Example 66, 5-[2-ethoxy-5-(1-ethyl-3-pyrrolidinylmethylamidosulfonyl)phenyl]-1-methyl-3-isobutyl-1,6-dihydro-7H-pyrazolo(4,3-d)pyrimidin-7-one], for which the “PEI (penile erection index)” value with rats came out at 175.0 ± 95.7. Moreover, in the data set on rats, the “genital grooming” value turned out to be 2.8 ± 0.5. The IC50 was 35.8 nM in data set [1] and 90400 nM in data set [3]. For the same compound, in data set [2], the LD50 is greater than 1000 mg/kg.
Turning to `CCCc1nn(C)c2c(=O)[nH]c(-c3cc(S(=O)(=O)Nc4ccncc4)ccc3OCC)nc12` [Example 34, 5-[2-ethoxy-5-(4-pyridylamidosulfonyl)phenyl]-1-methyl-3-propyl-1,6-dihydro-7H-pyrazolo(4,3-d)pyrimidin-7-one], in the data set on rats, the “PEI (penile erection index)” value amounted to 166.7 ± 57.7 and the “genital grooming” value stood at 1.3 ± 0.6. This compound had an IC50 in data set [1] of 3.44 nM. The LD50 in data set [2] was greater than 1000 mg/kg. Also, the IC50 in data set [3] is 184000 nM.
`CCCc1nn(CC)c2c(=O)[nH]c(-c3cc(S(=O)(=O)NCC4CCCN4C)ccc3OCC)nc12` (centres unmarked) [Example 57]: in the data set on rats, the “PEI (penile erection index)” value was found to be 131.3 ± 128.1. The “genital grooming” value in the data set with rats is recorded as 1.8 ± 1.3. In addition, the IC50 in data set [1] was 33.3 nM; in data set [3] it was 47700 nM.
With `CCCc1nn(CC)c2c(=O)[nH]c(-c3cc(S(=O)(=O)NCCC4CCCN4C)ccc3OCC)nc12` (centres unmarked) [Example 69], in the data set with rats, the “PEI (penile erection index)” value was 225.0 ± 95.7 and the “genital grooming” value was 2.3 ± 1.0. In data set [1], this compound had an IC50 of 31.9 nM. For the same compound, 76500 nM corresponded to half-maximal inhibition in data set [3] (IC50).
As to `CCCc1nn(C)c2c(=O)[nH]c(-c3cc(S(=O)(=O)NCC4CCN(CC)C4)ccc3OCC)nc12` (centres unmarked) [Example 63], in the data set with rats, the “PEI (penile erection index)” value stood at 12.5 ± 25.0 and the “genital grooming” value is given as 1.5 ± 0.6. The same compound showed an IC50 in data set [1] of 98.2 nM. In data set [3], this compound showed an IC50 of 52300 nM.
For the compound `CCCc1nn(CC)c2c(=O)[nH]c(-c3cc(S(=O)(=O)NCC4CCN(CC)C4)ccc3OCC)nc12` (centres unmarked) [Example 65], in the data set with rats, the “PEI (penile erection index)” value came out at 93.8 ± 94.4 and the “genital grooming” value was 1.8 ± 1.0. The compound further showed an IC50 in data set [1] of 74.5 nM. The compound also had a half-maximal inhibitory concentration (IC50) in data set [3] of 32100 nM.
For the compound `CCCc1nn(C)c2c(=O)[nH]c(-c3cc(S(=O)(=O)NCC4CCN(C)C4)ccc3OCC)nc12` (centres unmarked) [Example 59], in the data set on rats, the “PEI (penile erection index)” value stood at 150.0 ± 57.7 and the “genital grooming” value amounted to 1.5 ± 0.6. In data set [1], this compound gave an IC50 of 140 nM. In data set [3], this compound gave an IC50 of 122000 nM.
As to `CCCc1nn(CC)c2c(=O)[nH]c(-c3cc(S(=O)(=O)NC4CC4)ccc3OCC)nc12` [Example 14, 5-[2-ethoxy-5-(cyclopropylamidosulfonyl)phenyl]-1-ethyl-3-propyl-1,6-dihydro-7H-pyrazolo(4,3-d)pyrimidin-7-one], in the data set with rats, the “PEI (penile erection index)” value turned out to be 233.3 ± 57.7 and the “genital grooming” value is 3.0 ± 1.0. In addition, 79.5 nM corresponded to half-maximal inhibition in data set [1] (IC50). Also, the LD50 in data set [2] was greater than 1000 mg/kg.
In the case of `CCCc1nn(CC)c2c(=O)[nH]c(-c3cc(S(=O)(=O)NC(C)C)ccc3OCC)nc12` [Example 5, 5-[2-ethoxy-5-(isopropylamidosulfonyl)phenyl]-1-ethyl-3-propyl-1,6-dihydro-7H-pyrazolo(4,3-d)pyrimidin-7-one], in the data set with rats, the “PEI (penile erection index)” value is 266.7 ± 57.7 and the “genital grooming” value stood at 3.3 ± 1.2. Besides, half-maximal inhibition in data set [1] (IC50) was put at 19.6 nM. The LD50 in data set [2] was greater than 1000 mg/kg.
Turning to `CCCc1nn(C)c2c(=O)[nH]c(-c3cc(S(=O)(=O)NC4CC4)ccc3OCC)nc12` [Example 13, 5-[2-ethoxy-5-(cyclopropylamidosulfonyl)phenyl]-1-methyl-3-propyl-1,6-dihydro-7H-pyrazolo(4,3-d)pyrimidin-7-one], in the data set with rats, the “PEI (penile erection index)” value came out at 300.0 ± 100.0 and the “genital grooming” value came out at 4.3 ± 1.2. Moreover, in data set [1], the IC50 was 21.7 nM. In data set [2], the LD50 was greater than 1000 mg/kg.
On to `CCCc1nn(CC)c2c(=O)[nH]c(-c3cc(S(=O)(=O)Nc4ccc(C(C)(C)C)cc4)ccc3OCC)nc12` [Example 29, 5-[2-ethoxy-5-(4-t-butylphenylamidosulfonyl)phenyl]-1-ethyl-3-propyl-1,6-dihydro-7H-pyrazolo(4,3-d)pyrimidin-7-one], for which, in the data set with rats, the “PEI (penile erection index)” value came out at 233.3 ± 152.8 and the “genital grooming” value turned out to be 3.0 ± 2.0. Besides, 49.8 nM corresponded to half-maximal inhibition in data set [1] (IC50). Moreover, the LD50 in data set [2] is greater than 1000 mg/kg.
Regarding `CCCc1nn(CC)c2c(=O)[nH]c(-c3cc(S(=O)(=O)Nc4ccncc4)ccc3OCC)nc12` [Example 36, 5-[2-ethoxy-5-(4-pyridylamidosulfonyl)phenyl]-1-ethyl-3-propyl-1,6-dihydro-7H-pyrazolo(4,3-d)pyrimidin-7-one], in the data set with rats, the “PEI (penile erection index)” value worked out at 200.0 ± 173.2 and the “genital grooming” value worked out at 1.3 ± 0.6. The compound also showed an IC50 in data set [1] of 3.09 nM. For the same compound, the LD50 in data set [2] is greater than 1000 mg/kg.
On to `CCCc1nn(C)c2c(=O)[nH]c(-c3cc(S(=O)(=O)Nc4ccc(F)cc4)ccc3OCC)nc12` [Example 26, 5-[2-ethoxy-5-(4-fluorophenylamidosulfonyl)phenyl]-1-methyl-3-propyl-1,6-dihydro-7H-pyrazolo(4,3-d)pyrimidin-7-one], for which, in the data set with rats, the “PEI (penile erection index)” value is recorded as 133.3 ± 133.3 and the “genital grooming” value is 4.0 ± 1.7. Further, in data set [1], the IC50 was 74.6 nM. Also, in data set [2], the LD50 was greater than 1000 mg/kg.
